# Results as given in paper PMC9569450, “Dual Effect of Tryptamine on Prostate Cancer Cell Growth Regulation: A Pilot Study” (International Journal of Molecular Sciences, 2022).
# Experiments:
# [1] = system: cleaved caspase-3 in PC-3 cells; experiment: Cleaved caspase-3 expression by immunofluorescent staining and Western blot; assay type: cell-based, human; settings: PC-3, 0.3 mM
# Procedure: After treatment with various doses of tryptamine, PC-3 cells were lysed with RIPA lysis buffer (Beyotime, Shanghai, China) containing 1 mM PMSF, and the total protein concentration was determined by BCA Protein Assay Kit (Solarbio, Beijing, China). Samples were electrophoresed on a 10% sodium dodecylsulfate (SDS) polyacrylamide gel and electrotransferred onto polyvinylidene difluoride (PVDF) membrane (Beyotime, China). After blocking with 5% BSA for 1 h, the membrane was incubated with the primary antibodies rabbit anti-cleaved caspase-3 (1:1000, ab32042, Abcam) and anti-β-actin (1:1000, 4967S, Cell Signaling Technology, Boston, MA, USA) at 4 °C overnight, followed by incubation with horseradish peroxidase (HRP)-conjugated goat anti-rabbit secondary antibody (1:2000, 7074S, Cell Signaling Technology) for 1 h at 37 °C. After washing with TBST, the bands were visualized by the enhanced chemiluminescence kit (Thermo Fisher Scientific, Carlsbad, CA, USA) and Odyssey® imaging system (LI-COR, Lincoln, NE, USA) according to the manufacturers’ instructions.
# PC-3 cells (5 × 10^4 cells/well) were seeded in a 24-well chamber with a coverslip and incubated overnight. […] Fluorescence images were acquired with a laser scanning confocal microscope (LSCM, Leica, TCS SP8 MP, Heidelberg, Germany).
# [2] = system: human colon cancer cell line HT29; settings: HT29 as in vitro model of intestinal epithelium; cited from earlier work
# [3] = system: PC-3, LNCaP, RWPE-1, A549, PANC-1, and HepG2 cells; experiment: MTT cell proliferation assay, all cell lines; assay type: cell-based; settings: all cell lines tested; read-out: IC50 values for all six cell lines tested
# Procedure: PC-3, LNCaP, RWPE-1, HepG2, A549, and PANC-1 cells were purchased from the National Collection of Authenticated Cell Cultures (Shanghai, China). PC-3 and A549 cells were cultured in F-12K Nutrient Mixture (Gibco, New York, NY, USA), LNCaP in RPMI 1640 (Gibco, New York, NY, USA), PANC-1 in Dulbecco’s Modified Eagle Medium (DMEM, Gibco, New York, NY, USA), and HepG2 in minimal essential medium (MEM, Gibco, New York, NY, USA). All the above cell cultures were supplied with 10% fetal bovine serum and 1% penicillin-streptomycin. RWPE-1 cells were cultured in keratinocyte serum-free medium (K-SFM, Gibco, New York, NY, USA) supplemented with 50 mg/L bovine pituitary extract and 5 μg/L epidermal growth factor (EGF). All cell lines were grown in a humidified atmosphere of 5% CO2 at 37 °C.
# Cells were seeded in 100 μL complete medium in a 96-well plate, at a density of 10,000 cells/well for LNCaP and 5000 cells/well for other cells. Cells were pre-incubated for 24 h to allow for adherence before removal of complete medium and treatment with various concentrations of compounds in fetal bovine serum (FBS)-free medium for 48 h. After treatment, 20 μL/well MTT (5 mg/mL) was added and incubated for 3–4 h at 37 °C, and then 100 μL/well DMSO was added for MTT assay. The plate was shaken on an orbital shaker for 10 min. Absorbance was measured using a microplate reader at 492 nm for the MTT assay (performed in triplicates). Cell viability was normalized to control. Half inhibitory concentration (IC50) was calculated by SPSS Statistics 17.0. The combination index (CI) isobologram equation was used for the quantitative determination of the interaction between two compounds [62]:(1) Combination index CI =CA,x/ICx,A+CB,x/ICx,B where CA,x and CB,x are compound concentrations that […], and ICx,A and ICx,B are compound concentrations that provide the same effect when being used in combination. The experiments were independently repeated two to three times.
# PC-3 xenograft tumors = experiment: PC-3 xenograft mouse model; assay type: in vivo
# Procedure: Five-week-old male BALB/c nude mice were purchased from Charles River Laboratories (Beijing, China) and raised in a temperature and humidity-controlled environment (25 ± 2 °C, 50% ± 10% humidity) with a standard 12 h light-dark cycle with food and water in cages under germ-free conditions (SCXK2021-0006). All procedures involving animals and their care were approved by the Institutional Animal Care and Use Committee of the Ocean University of China in accordance with institutional and National Institutes of Health guidelines (OUC-SMP-2022-01-01). PC-3 cells (4 × 10^6 dissolved in 150 μL PBS) were injected subcutaneously into the armpit area of each mouse. For the first treatment group, when tumors reached 50 mm^3, 80 mg/kg of tryptamine dissolved in normal saline with 0.1% formic acid was administered intraperitoneally once every other day for 32 days (n = 6). […] The control groups were administrated with the vehicle. The tumor volume (mm^3) was calculated based on the formula:(2) Tumor volume (mm^3)=length×width^2/2
# PC-3 cells = experiment: Cell viability of PC-3 cells after 24 h (Figure S1); assay type: cell-based, human
# Procedure: Figure S1. Cell viability of PC-3 cell treated with various concentrations of tryptamine […]
# Figure S2. Liver function test results and effects of tryptamine and 3-HAA treatments on the tumor growth of PC-3 xenograft mouse model. (A and B) Appearance and aspartate aminotransferase (AST, U/L) value of the liver of PC-3 xenograft mice received intraperitoneal administration of tryptamine (80 mg/kg, n = 6) and intratumoral administration of tryptamine (1 mg/100 mm3, n = 5), respectively. Size of the tumors of PC-3 xenograft mice received intratumoral administration of (C and E) tryptamine (1 mg/100 mm3) and 3-HAA (200 mg/kg) and intraperitoneal administration of (D and F) tryptamine (80 mg/kg) and 3-HAA (200 mg/kg), respectively.
# Figure S3. Heatmap overview of altered PC-3 cell metabolic profiles in LC-MS (A) positive and (B) negative ion modes before and after tryptamine treatment.
# Figure S4. MS/MS analyses of the discriminant metabolites in panels.
# Figure S1. Cell viability of PC-3 cell treated with various concentrations of tryptamine for 24h. […]
structure (smiles),measurement,setting,value
NCCc1c[nH]c2ccccc12 [Tryptamine],expression of cleaved caspase-3,[1],increased expression of cleaved caspase-3
same,IC50,[2],670 ± 90 µM
same,IC50,[3],≤ 900 µM
same,tumor volume and weight compared with the control group,"PC-3 xenograft tumors; intraperitoneal, 80 mg/kg once every other day for 32 days",increased tumor volume and weight
same,adverse effects or toxicity in the liver,"PC-3 xenograft tumors; intratumoral, 1 mg/100 mm^3",without obvious signs of adverse effects or toxicity in the liver
same,"tumor growth, tumor volume and weight","PC-3 xenograft tumors; intratumoral, 1 mg/100 mm^3 every day for 16 days",significant tumor growth delay
same,viability at 300 µM,"PC-3 cells; Homo sapiens, PC-3, 0.3 mM, read-out: percentage of viable cells",75%
same,cell viability compared to the control group,"PC-3 cells; PC-3, 0.15 mM",no significant change in cell viability
